Experimental data as given in patent US8481678B2, “Peptide-based tooth whitening reagents” (E I du Pont de Nemours and Company, priority 2009, dated 2013).
Where no end group is shown, it is not given here. The star is where a group is joined. Biotin = O=C1N[C@H]2[C@H](CS[C@H]2CCCCC(=O)*)N1

Assays:
[1] = test system: pellicle-coated bovine enamel; experiment: Phage ELISA on pellicle-coated bovine enamel, candidates from brushed 8 hr pellicle, Example 17; format: binding, human; conditions: phage ELISA screened with 30 min in vivo pellicle; normalized to DenP3; no-phage control 0.094
Description: (§1) A total of 18 selected phage candidates were used in a phage ELISA Experiment. Purified phage lysates were used for binding to pellicle-coated bovine enamel using an anti-M13 phage antibody conjugated to horseradish-peroxidase, followed by the addition of chromogenic agent TMB, obtained from Pierce Biotechnology (Rockford, Ill.). The plates were read at A450nm.
The wells were rinsed 2 times with wash buffer consisting of PBST. The wells were filled with 1 mL of […] purified phage stock which was prepared by diluting in blocking buffer. […] The non-binding phage was removed by washing 5 times with PBST. Then, 500 μL of horseradish peroxidase/anti-M13 antibody conjugate (Amersham USA, Piscataway, N.J.), diluted 1:500 in the blocking buffer, was added and incubated for 45 min at room temperature. The conjugate solution was removed and was washed 5 times with PBST.

[2] = test system: pellicle-coated enamel substrates; conditions: 20 μM synthetic biotinylated peptide, 30 min at 37° C.; normalized to DenP03; three replicates; no peptide −0.001
Description: A total of 20 synthetic peptides were manufactured using sequences obtained from Table 14. Peptides were obtained from Synbiosci (Livermore, Calif.) and included an additional SSRP sequence (SEQ ID NO: 151) at the N-terminus and biotin labeled lysine at the C-terminus.
Enamel substrates were cut to approx. 7 mm squares and mounted on wax mounting for incubation in the mouth for 30 min to form a pellicle coated surface. The pellicle-coated enamel substrates were removed from the wax backing and placed in well plates with the pellicle surface exposed as in Example 1. Each pellicle-coated substrate was incubated for 1 h at room temperature (˜22° C.) with 1 mL of blocking buffer, consisting of 1 mg/mL BSA in PBST (Pierce BupH™ #28372 with 0.1% TWEEN® 20). The blocking buffer was removed by aspirating the liquid out of each well. The tube was rinsed 2 times with wash buffer consisting of PBST. The wells were filled with 500 μL of 20 μM peptide solution which was prepared by diluting in blocking buffer. The samples were incubated for 30 min with slow shaking at 37° C. The non-binding peptide was removed by washing 6 times with PBST. Then, 500 μL of horseradish peroxidase/streptavidin conjugate (Pierce #22127), diluted 1:2000 in PBST, was added and incubated for 1 h at room temperature. The conjugate solution was removed and was washed 4 times with PBST.
Each enamel substrate was removed from the well and washed again in a 15-mL test tube with 10 mL of PBST. Each enamel substrate was then mounted in a clean well plate with only the enamel surface exposed. A 1:1 solution of TMB substrate and H2O2 (200 μL), obtained from Pierce Biotechnology (Rockford, Ill.) was added to each well and the color was allowed to develop for between 10 to 20 min, typically for 15 min, at room temperature (˜22° C.). Then, 100 μL of solution from each well was transferred to a 96-well reading plate containing stop solution (100 μL of 2 M H2SO4) in each well. The A450 was measured using a microplate spectrophotometer (Molecular Devices, Sunnyvale, Calif.). […] Each sequence was tested with three replicate enamel coated pellicle substrates.

[3] = test system: pellicle coated bovine enamel; experiment: Phage ELISA on pellicle-coated bovine enamel (30 min in vivo pellicle), Example 13; format: binding, human; conditions: 10^11 pfu, 30 min at 37° C., normalized to an internal control
Description: as §1, with “29” for “18”, “candidates from Table 14” for “candidates”, “in” for “in a”, “Experiment to determine binding affinity and coverage of each phage on pellicle substrates.” for “Experiment.”, “pellicle coated” for “pellicle-coated”
The wells were filled with 1 mL of 10^11 pfu purified phage stock which was prepared by diluting in blocking buffer. […] The non-binding phage was removed by washing 5 times with PBST. […] The conjugate solution was removed and was washed 3 times with PBST.

Row | Substance | O.D. at 450 nm (normalized) [1] | further results
1 | AIEYQHSATTPWTMRTRLPP [DenP101] | 0.467 | –
2 | DGYKLQTSLDWQMWNP [DenP111] | 1.051 | –
3 | EFYPFAEVPPEKSGIGRQVF [DenP102] | 0.520 | –
4 | FPSKWYNHHRHITGHV [DenP112] | 0.413 | –
5 | GGMGALESYRQWNHLA [DenP113] | 1.348 | –
6 | GINKGQRPPWESWHEN [DenP114] | 0.703 | –
7 | GVHQYSRPTVPSYLWTSGQH [DenP103] | 0.879 | –
8 | GYGQYVSQQTWAHSNK [DenP115] | 0.501 | –
9 | GYQPHYVDHTIGWQPMIRPN [DenP104] | 0.790 | –
10 | HDHLSWWGQFDRQNLL [DenP116] | 1.055 | –
11 | MPGHQESIKVQNWNRV [DenP117] | 0.433 | –
12 | NLHSPWPSHAAHHWST [DenP118] | 0.641 | –
13 | NQQMKLVPQHWHRAQP [DenP119] | 1.051 | –
14 | QFNQTSHSFMHGTSGYVPGK [DenP105] | 0.470 | –
15 | SFSWHRGDWELGHQSKTMGM [DenP106] | 1.524 | –
16 | SMWHDITKRYRNPSEMVSAY [DenP107] | 0.726 | –
17 | SSRPQVPDYLSPTHQKKAFLEIPTK(Biotin) [DenP29-A] | – | O.D. at 450 nm (normalized) [2]: 0.468
18 | SSRPSEARARTFNDHTTPMPIIK(Biotin) [DenP14-A] | – | O.D. at 450 nm (normalized) [2]: 0.269
19 | SSRPTMTNHVYNSYTEKHSSTHRSK(Biotin) [DenP2-A] | – | O.D. at 450 nm (normalized) [2]: 0.273
20 | SSRPTTGSSSQADTSASMSIVPAHK(Biotin) [DenP17-A] | – | O.D. at 450 nm (normalized) [2]: 0.143
21 | SSRPTYQGVPSWPAVIDDAIRRK(Biotin) [DenP19-A] | – | O.D. at 450 nm (normalized) [2]: 0.712
22 | SSRPVEPATKNMREARSSTQMRRIK(Biotin) [DenP4-A] | – | O.D. at 450 nm (normalized) [2]: 0.803
23 | SSRPVNPNWVETQALHQPPGNTK(Biotin) [DenP20-A] | – | O.D. at 450 nm (normalized) [2]: 0.590
24 | SSRPYLLPKDQTTAPQVTPIVQHKK(Biotin) [DenP5-A] | – | O.D. at 450 nm (normalized) [2]: 0.462
25 | THGNKHQSWTYPSEINHKNY [DenP108] | 1.149 | –
26 | TTYHYKNIYQESYQQRNPAV (Synthetic oral-surface binding peptide) [DenP 03] | 1.000 | O.D. at 450 nm (normalized) [3]: 2.495
27 | WHEPHQFSGENTDYSSSMGT [DenP109] | 0.716 | –
